Results taken from the supplement of paper PMC10307832.

Columns and labels:
Assay in all cases: relative viability (nuclei count vs DMSO), 5 days (fraction); higher = more cells survive
BAM7 + Decitabine = compound: CCOC1=CC=CC=C1N=NC2=C(NN(C2=O)C3=NC(=CS3)C4=CC=CC=C4)C [BAM7] + Nc1ncn([C@H]2C[C@H](O)[C@@H](CO)O2)c(=O)n1 [Decitabine] (partner 2 µM)
In short: (§1)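 Relative viability equals treated-well nuclei counts divided by vehicle-well nuclei counts. Counts came from 4× images of lung cancer cell lines grown in 1536-well plates for 5 days after pin-tool dosing on the day after seeding. Dosing used one drug alone or a fixed anchor-drug dose plus five library-drug doses (not always all listed) in √10 steps, and values are medians of duplicate plates.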

[1] = compound: CCn1c(-c2nonc2N)nc2c(C#CC(C)(C)O)ncc(OC[C@H]3CCCNC3)c21 + CC1(C)CCC(c2ccc(Cl)cc2)=C(CN2CCN(c3ccc(C(=O)NS(=O)(=O)c4ccc(N[C@H](CCN5CCOCC5)CSc5ccccc5)c(S(=O)(=O)C(F)(F)F)c4)cc3)CC2)C1 [Navitoclax] (partner 0.5 µM)
In short: as §1

BAM7 + Trametinib = compound: CCOC1=CC=CC=C1N=NC2=C(NN(C2=O)C3=NC(=CS3)C4=CC=CC=C4)C [BAM7] + CC(=O)Nc1cccc(-n2c(=O)n(C3CC3)c(=O)c3c(Nc4ccc(I)cc4F)n(C)c(=O)c(C)c32)c1 [Trametinib] (partner 0.02 µM)
In short: as §1

BAM7 + Phenformin = compound: CCOC1=CC=CC=C1N=NC2=C(NN(C2=O)C3=NC(=CS3)C4=CC=CC=C4)C [BAM7] + N=C(N)NC(=N)NCCc1ccccc1 [Phenformin] (partner 250 µM)
In short: as §1

Row | Cell Line | relative viability (BAM7 + Decitabine; first compound 0.5 µM) | relative viability (BAM7 + Decitabine; first compound 5 µM) | relative viability (BAM7 + Decitabine; first compound 15.81 µM) | relative viability (BAM7 + Decitabine; first compound 50 µM) | relative viability ([1]; first compound 0.01 µM) | relative viability ([1]; first compound 0.03162 µM) | relative viability ([1]; first compound 0.1 µM) | relative viability ([1]; first compound 0.3162 µM) | relative viability ([1]; first compound 1 µM) | relative viability (BAM7 + Trametinib; first compound 0.5 µM) | relative viability (BAM7 + Trametinib; first compound 5 µM) | relative viability (BAM7 + Trametinib; first compound 15.81 µM) | relative viability (BAM7 + Trametinib; first compound 50 µM) | relative viability (BAM7 + Phenformin; first compound 0.5 µM) | relative viability (BAM7 + Phenformin; first compound 5 µM) | relative viability (BAM7 + Phenformin; first compound 15.81 µM) | relative viability (BAM7 + Phenformin; first compound 50 µM)
1 | HARA | 0.538 | 0.59 | 0.545 | 0.531 | 1.09 | 1.2 | 1.14 | 1.16 | 1.14 | 0.827 | 0.886 | 0.607 | 1.13 | 0.425 | 0.51 | 0.431 | 0.428
2 | NCI-H2087 | 0.339 | 0.289 | 0.292 | 0.297 | 0.832 | 1.08 | 0.961 | 1.03 | 1.02 | 0.18 | 0.181 | 0.204 | 0.173 | 0.464 | 0.473 | 0.43 | 0.49
3 | NCI-H1437 | 0.527 | 0.572 | 0.543 | 0.482 | 1.05 | 1.08 | 1.11 | 1.09 | 1.13 | 0.415 | 0.396 | 0.394 | 0.414 | 0.263 | 0.23 | 0.3 | 0.275
4 | NCI-H1792 | 0.557 | 0.458 | 0.48 | 0.516 | 0.722 | 0.501 | 0.619 | 0.62 | 0.604 | 0.46 | 0.462 | 0.401 | 0.362 | 0.333 | 0.219 | 0.274 | 0.369
5 | ChaGo-K-1 | 0.508 | 0.515 | 0.512 | 0.536 | 1.1 | 0.88 | 0.951 | 0.899 | 1.14 | 0.894 | 0.895 | 0.853 | 0.842 | 0.425 | 0.351 | 0.393 | 0.394
6 | COR-L23 | 0.428 | 0.453 | 0.461 | 0.468 | 0.838 | 1.05 | 1.01 | 0.968 | 1.03 | 0.519 | 0.58 | 0.614 | 0.657 | 0.411 | 0.5 | 0.443 | 0.424
7 | COR-L 105 | 0.606 | 0.7 | 0.678 | 0.622 | 0.613 | 0.715 | 0.74 | 0.67 | 0.654 | 0.404 | 0.525 | 0.466 | 0.272 | 0.516 | 0.503 | 0.551 | 0.534
8 | LK-2 | 0.352 | 0.335 | 0.347 | 0.326 | 0.787 | 0.927 | 0.77 | 0.872 | 0.889 | 0.737 | 0.945 | 0.811 | 0.841 | 0.507 | 0.389 | 0.466 | 0.636
9 | 201T | 0.844 | 0.887 | 0.837 | 0.926 | 1.21 | 1.22 | 1.26 | 1.19 | 1.17 | 0.742 | 0.738 | 0.71 | 0.708 | 0.465 | 0.464 | 0.474 | 0.483
